In ChEMBL document CHEMBL1221384, “Synthesis and antimicrobial activity of novel fluorine containing 4-(substituted-2-hydroxybenzoyl)-1H-pyrazoles and pyrazolyl benzo[d]oxazoles” (2010):
≈ marks a conversion by molar mass, not a printed value.

Experiments:
Assay type in all cases: functional
[1] = system: Pseudomonas aeruginosa; experiment: Antimicrobial activity against Pseudomonas aeruginosa MTCC 1688 by broth microdilution technique
[2] = system: Candida albicans; experiment: Antimicrobial activity against Candida albicans MTCC 227 by broth serial dilution technique
[3] = system: Bacillus subtilis; experiment: Antimicrobial activity against Bacillus subtilis MTCC 441 by broth microdilution technique
[4] = system: Staphylococcus aureus; experiment: Antimicrobial activity against Staphylococcus aureus MTCC 96 by broth microdilution technique
[5] = system: Escherichia coli; experiment: Antimicrobial activity against Escherichia coli MTCC 443 by broth microdilution technique

| Compound | MIC50 [1] | MIC50 [2] | MIC50 [3] | MIC50 [4] | MIC50 [5] |
| --- | --- | --- | --- | --- | --- |
| Cc1ccc2oc(-c3cnn(-c4ccc(F)c(F)c4)c3)nc2c1 | 62.5 µg/mL (≈ 201 µM) | 500 µg/mL (≈ 1610 µM) | 200 µg/mL (≈ 642 µM) | 50 µg/mL (≈ 161 µM) | 500 µg/mL (≈ 1610 µM) |
| O=C(N[C@H](CO)[C@H](O)c1ccc([N+](=O)[O-])cc1)C(Cl)Cl [CHLORAMPHENICOL] | 50 µg/mL (≈ 155 µM) |  | 50 µg/mL (≈ 155 µM) | 50 µg/mL (≈ 155 µM) | 50 µg/mL (≈ 155 µM) |
| Fc1ccc(-n2cc(-c3nc4cc(Cl)ccc4o3)cn2)cc1F | 125 µg/mL (≈ 377 µM) | 500 µg/mL (≈ 1510 µM) | 200 µg/mL (≈ 603 µM) | 125 µg/mL (≈ 377 µM) | 100 µg/mL (≈ 301 µM) |
| Fc1ccc(-n2cc(-c3nc4ccccc4o3)cn2)cc1F | 100 µg/mL (≈ 336 µM) | 1000 µg/mL (≈ 3360 µM) | 200 µg/mL (≈ 673 µM) | 125 µg/mL (≈ 421 µM) | 125 µg/mL (≈ 421 µM) |
| O/N=C(/c1cnn(-c2ccc(F)c(F)c2)c1)c1cc(F)ccc1O | 500 µg/mL (≈ 1500 µM) | 1000 µg/mL (≈ 3000 µM) | 250 µg/mL (≈ 750 µM) | 500 µg/mL (≈ 1500 µM) | 500 µg/mL (≈ 1500 µM) |
| O/N=C(/c1cnn(-c2ccc(F)c(F)c2)c1)c1cc(Cl)ccc1O | 125 µg/mL (≈ 357 µM) | 1000 µg/mL (≈ 2860 µM) | 62.5 µg/mL (≈ 179 µM) | 100 µg/mL (≈ 286 µM) | 12.5 µg/mL (≈ 35.7 µM) |
| O/N=C(/c1cnn(-c2ccc(F)c(F)c2)c1)c1cc(Br)ccc1O | 100 µg/mL (≈ 254 µM) | 500 µg/mL (≈ 1270 µM) | 1000 µg/mL (≈ 2540 µM) | 500 µg/mL (≈ 1270 µM) | 200 µg/mL (≈ 507 µM) |
| O=C(c1cnn(-c2ccc(F)c(F)c2)c1)c1cc(F)ccc1O | 50 µg/mL (≈ 157 µM) | 500 µg/mL (≈ 1570 µM) | 62.5 µg/mL (≈ 196 µM) | 100 µg/mL (≈ 314 µM) | 62.5 µg/mL (≈ 196 µM) |
| Fc1ccc(-n2cc(-c3nc4cc(Br)ccc4o3)cn2)cc1F | 250 µg/mL (≈ 665 µM) | 500 µg/mL (≈ 1330 µM) | 250 µg/mL (≈ 665 µM) | 250 µg/mL (≈ 665 µM) | 250 µg/mL (≈ 665 µM) |
| Fc1ccc2oc(-c3cnn(-c4ccc(F)c(F)c4)c3)nc2c1 | 50 µg/mL (≈ 159 µM) | 250 µg/mL (≈ 793 µM) | 200 µg/mL (≈ 634 µM) | 500 µg/mL (≈ 1590 µM) | 250 µg/mL (≈ 793 µM) |
| O=C(c1cnn(-c2ccc(F)c(F)c2)c1)c1cc(Cl)ccc1O | 500 µg/mL (≈ 1490 µM) | 500 µg/mL (≈ 1490 µM) | 500 µg/mL (≈ 1490 µM) | 1000 µg/mL (≈ 2990 µM) | 250 µg/mL (≈ 747 µM) |
| NYSTATIN |  | 100 µg/mL |  |  |  |
| O=C(c1cnn(-c2ccc(F)c(F)c2)c1)c1cc(F)cc(Cl)c1O | 500 µg/mL (≈ 1420 µM) | 250 µg/mL (≈ 709 µM) | 500 µg/mL (≈ 1420 µM) | 1000 µg/mL (≈ 2840 µM) | 500 µg/mL (≈ 1420 µM) |
| O=C(c1cnn(-c2ccc(F)c(F)c2)c1)c1ccccc1O | 555 µg/mL (≈ 1850 µM) | 100 µg/mL (≈ 333 µM) | 12.5 µg/mL (≈ 41.6 µM) | 500 µg/mL (≈ 1670 µM) | 250 µg/mL (≈ 833 µM) |
| O=C(O)c1cn(C2CC2)c2cc(N3CCNCC3)c(F)cc2c1=O [CIPROFLOXACIN] | 25 µg/mL (≈ 75.4 µM) |  | 50 µg/mL (≈ 151 µM) | 50 µg/mL (≈ 151 µM) | 25 µg/mL (≈ 75.4 µM) |
| CCn1cc(C(=O)O)c(=O)c2cc(F)c(N3CCNCC3)cc21 [NORFLOXACIN] | 10 µg/mL (≈ 31.3 µM) |  | 100 µg/mL (≈ 313 µM) | 10 µg/mL (≈ 31.3 µM) | 10 µg/mL (≈ 31.3 µM) |
| Cc1ccc(O)c(C(=O)c2cnn(-c3ccc(F)c(F)c3)c2)c1 | 250 µg/mL (≈ 795 µM) | 1000 µg/mL (≈ 3180 µM) | 500 µg/mL (≈ 1590 µM) | 500 µg/mL (≈ 1590 µM) | 500 µg/mL (≈ 1590 µM) |
| Cc1ccc(C(=O)c2cnn(-c3ccc(F)c(F)c3)c2)c(O)c1 | 62.5 µg/mL (≈ 199 µM) | 500 µg/mL (≈ 1590 µM) | 100 µg/mL (≈ 318 µM) | 200 µg/mL (≈ 636 µM) | 125 µg/mL (≈ 398 µM) |
| Cc1ccc(/C(=N\O)c2cnn(-c3ccc(F)c(F)c3)c2)c(O)c1 | 50 µg/mL (≈ 152 µM) | 500 µg/mL (≈ 1520 µM) | 500 µg/mL (≈ 1520 µM) | 250 µg/mL (≈ 759 µM) | 25 µg/mL (≈ 75.9 µM) |
| O/N=C(/c1cnn(-c2ccc(F)c(F)c2)c1)c1ccccc1O | 500 µg/mL (≈ 1590 µM) | 1000 µg/mL (≈ 3170 µM) | > 1000 µg/mL | > 1000 µg/mL | 500 µg/mL (≈ 1590 µM) |
| Cc1ccc2nc(-c3cnn(-c4ccc(F)c(F)c4)c3)oc2c1 | 500 µg/mL (≈ 1610 µM) | 500 µg/mL (≈ 1610 µM) | 25 µg/mL (≈ 80.3 µM) | 200 µg/mL (≈ 642 µM) | 200 µg/mL (≈ 642 µM) |
| O=C(c1cnn(-c2ccc(F)c(F)c2)c1)c1cc(Br)ccc1O | 500 µg/mL (≈ 1320 µM) | > 1000 µg/mL | 100 µg/mL (≈ 264 µM) | 125 µg/mL (≈ 330 µM) | 500 µg/mL (≈ 1320 µM) |
| GENTAMICIN | 1 µg/mL |  | 1 µg/mL | 0.25 µg/mL | 0.05 µg/mL |
| CC1(C)S[C@@H]2[C@H](NC(=O)[C@H](N)c3ccccc3)C(=O)N2[C@H]1C(=O)O [AMPICILLIN] | 100 µg/mL (≈ 286 µM) |  | 250 µg/mL (≈ 715 µM) | 250 µg/mL (≈ 715 µM) | 100 µg/mL (≈ 286 µM) |
| COC1=CC(=O)C[C@@H](C)[C@]12Oc1c(Cl)c(OC)cc(OC)c1C2=O [GRISEOFULVIN] |  | 500 µg/mL (≈ 1420 µM) |  |  |  |
| Cc1cc(C)c(O)c(C(=O)c2cnn(-c3ccc(F)c(F)c3)c2)c1 | 250 µg/mL (≈ 761 µM) | 1000 µg/mL (≈ 3050 µM) | 500 µg/mL (≈ 1520 µM) | 500 µg/mL (≈ 1520 µM) | 500 µg/mL (≈ 1520 µM) |
